Test system: embryoid body containing mixture of cardiomyocytes and non-cardiomyocytes
Assay: Sarcomeric α-actinin-positive cell rate by flow cytometer after treatment of embryoid body with compound
Assay type: cell-based, human
Settings: Experimental Example 4; clinical iPS cell line; embryoid body treated from day 20 for 4 days; FK-228 1-30 nM, Entinostat 0.1-10 μM
Description: On day 20, the embryoid body was recovered in a centrifugal tube, stood until a sediment of the embryoid body was formed, and the supernatant was aspirated while avoiding sucking the embryoid body. The medium was changed with a fresh 13 medium (same medium for myocardial differentiation as in Experimental Example 1), and divided into a 6-well plate with a medium amount of 3 mL/well so that an equal amount of the embryoid body would be placed in each well. Thereafter, an evaluation compound (1 nM to 10 μM) described in Table 1 or DMSO (0.1%) was added. […] It was centrifuged at 500 g for 1 min. The supernatant was removed, a solution of 500 μL of IMDM added with DNase 10 μg/mL and Liberase 100 μg/mL was added per one tube, and the mixture was stood at 37° C. under general oxygen conditions for 1 hr. […] The fixed cells were stained with an anti-sarcomeric α-actinin antibody, and the expression of sarcomeric α-actinin was analyzed with a flow cytometer. […]
On day 20, the embryoid body was recovered in a centrifugal tube, stood until a sediment of the embryoid body was formed, and the supernatant was aspirated while avoiding sucking the embryoid body. […] The fixed cells were stained with an anti-sarcomeric α-actinin antibody, and the sarcomeric α-actinin-positive cell rate was measured by analyzing the expression of sarcomeric α-actinin with a flow cytometer. […]

## Nc1ccccc1NC(=O)c1ccc(CNC(=O)OCc2cccnc2)cc1 [Entinostat]
  cardiomyocyte rate (sarcomeric α-actinin-positive cell rate): improved

Reference: patent US20230212519A1, “METHOD FOR PURIFYING CARDIOMYOCYTES” (ORIZURU THERAPEUTICS, INC., priority 2020, published 2023)
